Test results reported in patent US8871794B2, “Small-molecule agonists for type-2 orexin receptor” (Board of Regents, The University of Texas System, priority 2008, dated 2014).

Columns and labels:
OX1R = biological target: T1, OX1R (Homo sapiens, UniProt O43613); experiment: Intracellular Calcium Transient Assay in OX1R-expressing CHO cells; assay type: cell-based
T1 construct: Open reading frames of OX1R, OX2R and GRP (control) receptor were inserted into a bicistronic retrovirus expression vector; expressed in transfected cells; host or cells: CHO cells harboring ecotropic retroviral receptor, infected with retrovirus and selected with puromycin
T1 sequence (O43613 1-425): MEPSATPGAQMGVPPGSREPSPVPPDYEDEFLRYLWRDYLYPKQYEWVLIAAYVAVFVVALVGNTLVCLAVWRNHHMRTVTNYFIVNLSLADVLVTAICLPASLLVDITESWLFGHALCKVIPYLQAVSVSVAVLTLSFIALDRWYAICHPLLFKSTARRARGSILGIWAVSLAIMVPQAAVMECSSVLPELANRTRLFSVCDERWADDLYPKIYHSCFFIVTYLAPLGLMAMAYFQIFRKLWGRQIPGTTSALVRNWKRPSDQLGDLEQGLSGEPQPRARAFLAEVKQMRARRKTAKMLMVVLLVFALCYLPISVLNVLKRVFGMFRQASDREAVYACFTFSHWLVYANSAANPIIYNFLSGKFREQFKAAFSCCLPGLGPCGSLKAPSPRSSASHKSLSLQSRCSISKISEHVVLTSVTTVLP
Procedure: DNA Construction: Open reading frames of OX1R, OX2R and GRP (control) receptor were inserted into a bicistronic retrovirus expression vector, pMXs-IRES-puror (pMXs-IP), which carried a FLAG™ epitope cDNA sequence at the beginning of the ORF sequences encoding their human polypeptides.
Transfection and retrovirus production: Transfection was carried out using FuGENE 6 (Roche Diagnostics Corp.) according to the manufacturer's recommendations. Retroviruse fluid was harvested after 48 hours post transfection.
Cell lines: To generate receptor expressing cells, CHO cells harboring ecotropic retroviral receptor were infected with a retroviral supernatant. After 24 hours post infection, the retrovirus supernatant was removed and infected cells were selected with 10 μg/ml of puromycin (Sigma-Aldrich, St. Louis, Mo.). […]
0.5 ml aliquot of the cell suspension was stimulated by addition of 5 μl of compound dissolved in DMSO. Changes of [Ca^2+]i transients in cells were measured at RT by using CAF-110 Intracellular Ion Analyser (JASCO, Tokyo) with the excitation wave lengths of 340 nm and 380 nm and emission wavelength of 500 nm

OX2R = biological target: T2, OX2R (Homo sapiens, UniProt O43614); experiment: CRE reporter assay, OX2R; assay type: cell-based; design: expressed in transfected cells; host or cells: HEK293T cells, transient co-transfection
T2 sequence (O43614 1-444): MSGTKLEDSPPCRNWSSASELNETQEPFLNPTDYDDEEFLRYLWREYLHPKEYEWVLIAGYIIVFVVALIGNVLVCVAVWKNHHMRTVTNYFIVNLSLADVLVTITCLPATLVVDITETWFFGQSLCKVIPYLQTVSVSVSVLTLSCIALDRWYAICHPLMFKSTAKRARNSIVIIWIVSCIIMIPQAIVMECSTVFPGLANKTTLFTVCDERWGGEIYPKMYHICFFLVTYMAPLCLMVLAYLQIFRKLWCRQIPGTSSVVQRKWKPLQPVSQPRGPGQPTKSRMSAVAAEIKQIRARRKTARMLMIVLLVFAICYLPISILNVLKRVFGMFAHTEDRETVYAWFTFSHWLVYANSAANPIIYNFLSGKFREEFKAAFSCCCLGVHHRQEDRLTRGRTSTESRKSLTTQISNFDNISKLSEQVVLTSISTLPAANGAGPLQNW

- Ca2+ response (OX1R): weaker response
- reporter activation in a distinct CRE reporter system (OX2R): confirmed reporter activation
- Fold Induction, OX2R_CRE (OX2R; CRE reporter): 5.1935
Structure (SMILES): Cc1ccc(Cn2c(=N)n(CC(O)c3ccc(Cl)c(Cl)c3)c3ccccc32)cc1 (stereo not drawn) [Compound 130699]
